Measured values reported in PMC3983056 (PLoS Pathogens, 2014).
Where “and” joins values, the source holds several entries; their conditions need not be identical. Equal entries are not always repeated. Where two headings read alike, the source gives them in different places.

Key:
[1] = Compound-associated cytotoxicity in latently infected cells (Cell Titer Glo); type: cell-based, human; conditions: human, latently infected (NL4.3-Luc) primary CD4+ T cells, continuous 48 hours, 50% cell viability reduction, three donors, mean ± SD
Protocol: (§1) Total peripheral blood mononuclear cells (PBMCs) were obtained from healthy HIV-negative donors by leukapheresis (AllCells, Inc, Emeryville, CA). Naive CD4+ T cells were purified by negative selection using EasySep magnetic beads (StemCells, Inc, Vancouver, Canada) and cultured in RPMI with 10% fetal bovine serum (FBS), penicillin/streptomycin, 1% nonessential amino acids (Life Technologies, Carlsbad, CA), 1% sodium pyruvate (Life Technologies) and 495 nM beta-mercaptoethanol (Sigma Aldrich, St. Louis, MO) in a 37°C, 5% CO2 incubator. Purified naive CD4+ T cells were activated by incubation with anti-CD3/CD28 magnetic Dynabeads (1 bead: 2 cells ratio, Life Technologies), 1 µg/ml anti-IL-4 (R&D Systems, Minneapolis, MN), 2 µg/ml anti-IL-12p70 antibodies (R&D Systems), and 10 ng/ml TGF-β (R&D Systems) for 3 days, [59]. Following the removal of anti-CD3/CD28 beads and antibodies, cells were maintained in 30 U/ml IL-2 (Life Technologies) for 2 days. Cells were then infected with NL4.3-Luc in the presence of 50 µg/ml DEAE for 3 hours. Cells were maintained in the continued presence of 30 U/ml IL-2 throughout the infection and subsequent rest period with culture medium with fresh IL-2 replaced every 2–3 days. Seven days post-infection, 20 µl of latently infected cells were dispensed into 384 well plates using a MicroFlo dispenser (Biotek Insturments, VT) at 10,000 cells/well containing 100 nl of compound solutions delivered by the Echo acoustic-based liquid dispenser (Labcyte, Sunnyvale, CA). After a 48-hour incubation, 16 µl/well BriteGlo (Promega, Madison, WI) was added and luminescence measured using the Envision plate reader (Perkin Elmer, Waltham, MA). Compound-associated cytotoxicity was determined in latently infected cells in parallel with the virus activation assay. Cells were incubated with compounds for 48 hours at 37°C, and cell viability was determined using Cell Titer Glo reagent (Promega).

[2] = system: latently infected primary CD4 T cells; test: as above; type: cell-based, human; conditions: continuous 48 hours, 50% cell viability reduction, three donors, mean ± SD
Protocol: as §1

human HDAC-5 = target: T1, human HDAC-5 (Homo sapiens, UniProt Q9UQL6); test: HDAC inhibition assay; type: biochemical
T1 construct: purchased Reaction Biology Corporation (Malvern, PA)
T1 sequence (Q9UQL6 whole entry): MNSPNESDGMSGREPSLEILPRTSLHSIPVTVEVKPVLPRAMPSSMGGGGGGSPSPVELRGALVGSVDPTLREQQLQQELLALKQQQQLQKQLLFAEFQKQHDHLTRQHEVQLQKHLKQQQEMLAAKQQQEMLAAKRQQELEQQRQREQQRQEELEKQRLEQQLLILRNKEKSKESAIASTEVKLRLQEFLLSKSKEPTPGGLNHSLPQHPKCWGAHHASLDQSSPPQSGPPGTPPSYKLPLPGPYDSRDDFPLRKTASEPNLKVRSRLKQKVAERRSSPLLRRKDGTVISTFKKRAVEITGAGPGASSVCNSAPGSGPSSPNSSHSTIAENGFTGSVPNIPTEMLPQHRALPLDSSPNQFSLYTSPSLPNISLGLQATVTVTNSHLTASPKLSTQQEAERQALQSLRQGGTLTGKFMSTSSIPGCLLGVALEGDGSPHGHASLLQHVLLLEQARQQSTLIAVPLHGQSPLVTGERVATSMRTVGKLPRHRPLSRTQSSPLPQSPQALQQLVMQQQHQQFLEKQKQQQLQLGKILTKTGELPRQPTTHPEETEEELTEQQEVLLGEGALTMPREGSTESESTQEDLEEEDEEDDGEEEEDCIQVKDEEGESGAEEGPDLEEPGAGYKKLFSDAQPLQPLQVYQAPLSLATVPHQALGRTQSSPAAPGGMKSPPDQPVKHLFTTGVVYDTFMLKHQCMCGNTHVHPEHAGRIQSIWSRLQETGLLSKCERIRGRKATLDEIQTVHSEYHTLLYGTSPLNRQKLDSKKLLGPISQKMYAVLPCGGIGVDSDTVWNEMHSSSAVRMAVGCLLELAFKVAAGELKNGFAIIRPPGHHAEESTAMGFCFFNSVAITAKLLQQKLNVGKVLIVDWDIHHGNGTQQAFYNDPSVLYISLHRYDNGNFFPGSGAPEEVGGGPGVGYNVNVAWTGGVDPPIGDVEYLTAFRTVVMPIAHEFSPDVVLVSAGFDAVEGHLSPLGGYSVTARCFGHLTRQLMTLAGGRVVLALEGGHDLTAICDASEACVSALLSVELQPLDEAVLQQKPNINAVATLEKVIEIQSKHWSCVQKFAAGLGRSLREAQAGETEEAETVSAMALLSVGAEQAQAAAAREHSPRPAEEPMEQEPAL

human HDAC-1 = target: T2, human HDAC-1 (Homo sapiens, UniProt Q13547); test: HDAC inhibition assay; type: biochemical
T2 construct: purchased Reaction Biology Corporation (Malvern, PA)
T2 sequence (Q13547 whole entry): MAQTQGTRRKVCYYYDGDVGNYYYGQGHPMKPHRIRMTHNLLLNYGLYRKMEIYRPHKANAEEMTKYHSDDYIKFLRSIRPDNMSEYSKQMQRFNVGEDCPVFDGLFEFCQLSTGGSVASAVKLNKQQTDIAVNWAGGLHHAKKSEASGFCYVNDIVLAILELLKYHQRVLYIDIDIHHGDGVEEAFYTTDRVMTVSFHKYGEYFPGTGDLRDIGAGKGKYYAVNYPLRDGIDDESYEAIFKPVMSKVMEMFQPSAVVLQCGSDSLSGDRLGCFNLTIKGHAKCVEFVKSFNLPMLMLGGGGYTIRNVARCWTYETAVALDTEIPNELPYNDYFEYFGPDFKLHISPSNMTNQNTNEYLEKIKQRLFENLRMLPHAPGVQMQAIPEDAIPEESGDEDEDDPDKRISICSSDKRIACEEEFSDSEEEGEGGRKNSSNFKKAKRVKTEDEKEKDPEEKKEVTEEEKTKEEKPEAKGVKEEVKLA
Protocol: (§2) Determination of HDACi potency against individual HDAC enzymes was performed at Reaction Biology Corporation (Malvern, PA). In brief, human HDAC-1 to -11 enzymes were incubated with serial dilutions of HDACi and fluorogenic peptide substrates (50 µM) in a 96-well format assay. […] Fluorogenic peptide Boc-Lys(trifluoroacetyl)-AMC was used as a substrate for HDAC enzymes 4, 5, 7, and 9.

human HDAC-10 = target: T3, human HDAC-10 (Homo sapiens, UniProt Q969S8); test: HDAC inhibition assay; type: biochemical
T3 construct: purchased Reaction Biology Corporation (Malvern, PA)
T3 sequence (Q969S8 whole entry): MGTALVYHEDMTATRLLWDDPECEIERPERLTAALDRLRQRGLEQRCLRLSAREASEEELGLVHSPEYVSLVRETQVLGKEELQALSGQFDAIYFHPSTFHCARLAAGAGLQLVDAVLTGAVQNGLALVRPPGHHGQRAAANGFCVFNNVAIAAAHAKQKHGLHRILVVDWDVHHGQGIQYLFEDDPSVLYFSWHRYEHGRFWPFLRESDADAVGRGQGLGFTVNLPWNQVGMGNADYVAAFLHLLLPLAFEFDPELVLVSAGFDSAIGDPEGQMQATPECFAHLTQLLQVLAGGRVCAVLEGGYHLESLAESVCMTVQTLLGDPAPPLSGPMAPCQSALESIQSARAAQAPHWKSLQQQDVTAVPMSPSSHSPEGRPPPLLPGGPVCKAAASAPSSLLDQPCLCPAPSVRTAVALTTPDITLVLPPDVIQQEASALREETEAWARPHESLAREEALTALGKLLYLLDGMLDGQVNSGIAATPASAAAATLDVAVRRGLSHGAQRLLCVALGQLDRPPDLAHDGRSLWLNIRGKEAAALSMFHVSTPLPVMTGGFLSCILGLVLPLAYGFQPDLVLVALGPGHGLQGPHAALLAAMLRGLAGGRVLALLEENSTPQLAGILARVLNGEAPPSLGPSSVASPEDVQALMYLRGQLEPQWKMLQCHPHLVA
Protocol: as §2

human HDAC-4 = target: T4, human HDAC-4 (Homo sapiens, UniProt P56524); test: HDAC inhibition assay; type: biochemical
T4 construct: purchased Reaction Biology Corporation (Malvern, PA)
T4 sequence (P56524 whole entry): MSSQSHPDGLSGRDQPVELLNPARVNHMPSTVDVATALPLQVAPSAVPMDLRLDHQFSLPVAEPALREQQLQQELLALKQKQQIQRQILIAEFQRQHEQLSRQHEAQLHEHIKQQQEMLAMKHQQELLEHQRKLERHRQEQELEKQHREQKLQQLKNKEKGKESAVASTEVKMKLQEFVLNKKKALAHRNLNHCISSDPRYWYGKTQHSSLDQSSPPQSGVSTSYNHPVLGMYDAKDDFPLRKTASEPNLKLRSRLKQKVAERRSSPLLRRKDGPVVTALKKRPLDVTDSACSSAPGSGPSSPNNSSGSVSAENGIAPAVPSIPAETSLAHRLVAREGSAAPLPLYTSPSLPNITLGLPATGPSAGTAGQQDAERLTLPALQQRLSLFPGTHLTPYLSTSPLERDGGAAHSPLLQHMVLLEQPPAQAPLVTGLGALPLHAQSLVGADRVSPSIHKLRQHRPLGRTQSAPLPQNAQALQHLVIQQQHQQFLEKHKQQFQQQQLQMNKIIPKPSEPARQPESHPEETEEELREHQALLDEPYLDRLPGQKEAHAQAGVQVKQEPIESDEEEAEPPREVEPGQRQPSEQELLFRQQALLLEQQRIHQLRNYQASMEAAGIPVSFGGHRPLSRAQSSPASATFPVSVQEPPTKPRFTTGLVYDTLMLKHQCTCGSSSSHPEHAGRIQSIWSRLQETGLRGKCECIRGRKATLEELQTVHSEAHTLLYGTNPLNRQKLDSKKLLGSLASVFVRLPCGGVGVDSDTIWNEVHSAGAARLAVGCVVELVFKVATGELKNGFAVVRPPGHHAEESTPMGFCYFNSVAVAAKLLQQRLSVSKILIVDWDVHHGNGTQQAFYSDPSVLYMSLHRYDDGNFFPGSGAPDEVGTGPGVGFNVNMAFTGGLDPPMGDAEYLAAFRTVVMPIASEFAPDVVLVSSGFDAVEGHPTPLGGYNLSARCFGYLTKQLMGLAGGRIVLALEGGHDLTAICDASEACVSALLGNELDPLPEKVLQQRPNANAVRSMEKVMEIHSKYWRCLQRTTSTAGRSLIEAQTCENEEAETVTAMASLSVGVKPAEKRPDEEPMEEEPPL
Protocol: as §2

[3] = system: latent HIV in memory CD4 T cells from HIV-infected patients on suppressive cART; test: Ex vivo activation of HIV transcription, cell-associated HIV RNA, memory CD4 T cells; type: cell-based; conditions: for HIV RNA avg: Figure 2A, 40 nM RMD, one value per donor
Protocol: To examine the kinetics of HIV induction, we analyzed cell-associated viral RNA levels at 6, 12, 24, and 48 hours after treatment initiation.
Lysates were filtered through a Qiashredder (Qiagen).

[4] = system: latent HIV in resting CD4 T cells from HIV-infected patients on suppressive cART; test: Ex vivo release of extracellular HIV RNA into culture supernatants, resting CD4 T cells; type: cell-based
Protocol: (§3) HIV-infected patients participating in the study were selected based on sustained plasma viral load suppression (<50 copies/ml for >12 months), CD4 counts (>350 cells/µL), and absence of co-infection with hepatitis B or C virus (Supplementary Table S1). Clinical laboratory results were reconfirmed 2 weeks before leukapheresis or blood draw. Leukapheresis was conducted for 3–4 hours, and samples were processed within 2 hours after collection. The leukapheresis product was diluted 1∶1 with PBS and layered over Ficoll for isolation of PBMCs. […] Resting CD4 T cells were isolated by first enriching total CD4 T cells (StemCell Technologies) and subsequently depleting HLA-DR-, CD25-, and CD69-positive cells via negative selection (Miltenyi Biotec, Auburn, CA).
(§4) To assess HIV activation by HDACi, up to 5 million CD4 T cells were plated in 24-well plates in 2.5 ml of media, supplemented with antiretrovirals (ARVs) (100 nM elvitegravir and 100–300 nM efavirenz) for the entire duration of culture incubation. HDACi were added at specified concentrations on day 0 and cells or culture supernatants were harvested for the analysis of HIV RNA at the indicated time points (6–48 hours or 6–7 days, respectively). For HDACi pulse treatment, cultures were washed twice using ARV-containing media at 4 or 24 hours after addition of HDACi and incubated with ARVs until harvest. To measure HIV RNA levels, 1 ml of culture supernatant was analyzed by a robotic COBAS AmpliPrep/TaqMan system (Roche Diagnostics, Indianapolis, IN), which extracts total nucleic acid and quantifies HIV RNA in copies per milliliter using the HIV-1 Test, v2.0 kit (Roche Diagnostics). For the measurement of cell-associated HIV RNA levels, cells were washed with PBS, counted, and lysed (Qiagen RLT buffer, 400 µl for every 2 million cells; Qiagen, Venlo, Netherlands). Lysates were filtered through a Qiashredder (Qiagen). Total RNA was prepared from the lysates (400 µl) using a robotic system (QIAsymphony, Qiagen) that incorporates a DNase I digestion step to eliminate cellular DNA. The resulting total RNA was eluted with 200 µl of buffer, diluted to 1 ml with nuclease-free water, and analyzed by COBAS using the HIV-1 Test v2.0 kit. Preparations of both cell-associated RNA and supernatant total nucleic acids were tested for potential contamination with HIV DNA and/or host DNA by performing the PCR amplification in the presence and absence of reverse transcriptase and by a detection of GAPDH-encoding host DNA sequence.
(§5) HIV RNA-induction experiments were conducted using 5 to 6 replicates for every experimental condition, including vehicle-treated controls. Fold induction in HIV RNA levels was calculated as a ratio of mean signals from compound-treated and vehicle (DMSO)-treated control samples from the same donor under identical conditions. […] For experiments using blood-derived resting CD4 T cells, culture supernatants from 3 replicate wells were combined and analyzed using the COBAS system.

[5] = system: total class I and II HDAC enzyme activity in resting CD4 T cells; conditions: pulse RMD 4 hours, VOR 24 hours, PNB 24 hours, 6 to 48 hours
Protocol: Resting CD4 T cells obtained from HIV-infected patients on suppressive cART were incubated with serial dilutions of HDACi in 96-well plates at 10,000 cells/well for indicated time and then lysed by repeated freezing and thawing. Total cellular HDAC activity was measured using the HDAC-Glo I/II assay kit (Promega) according to the manufacturer's protocol.

[6] = system: resting CD4 T cells from cART-suppressed HIV-infected patients; test: Cell activation analysis by flow cytometry, isolated resting CD4 T cells; type: cell-based, human; conditions: 4-hour pulse RMD
Protocol: For cell activation analysis, either complete PBMC cultures or resting CD4+ T cells isolated from HIV-infected cART-suppressed patients were incubated with the tested agents under specified conditions and were stained with relevant antibodies. All antibodies were purchased from BD Biosciences and included Alexa Fluor 700-labeled antibody to CD4, APC-H7-labeled antibody to CD8, PE-Cy7 -labeled antibody to CD19, PE-labeled antibody to CD69, APC-labeled antibody to CD25, and V450-labeled antibody to HLA-DR. Live cells were gated by forward and side scatter and exclusion of the dead cells by Live/Dead Fixable Aqua Stain (Invitrogen). Marker staining was assessed by flow cytometry analysis on a LSR Fortessa with data processing using FlowJo software.
The surface expression of CD25 and CD69 in viable CD4 cells was analyzed by flow cytometry. Data are mean ± SD of two independent experiments performed with cells isolated from two HIV-infected patients on suppressive cART.

[7] = system: PBMC cultures from HIV-infected patients; test: Cytokine induction in PBMC cultures; type: cell-based, human; conditions: RMD treatment, data not shown
From the text: HIV latency reversing agents that would be suitable for the therapeutic use in vivo should not induce non-specific immune activation.

[8] = system: memory CD4 cells from HIV-infected patients; test: Viability of primary memory CD4 cells (Cell TiterGlo, 6 days); type: cell-based, human; conditions: memory CD4 cells, tested RMD concentrations (5 and 20 nM, 4 hours), day 6
Protocol: Cell viability was determined using a Cell TiterGlo reagent 6 days after the initiation of treatment and is expressed as a percentage of cell viability relative to control vehicle-treated memory CD4 cells from the same donors. The data represent mean +/− S.D. from three independent donors. (TIF) Click here for additional data file.

[9] = Human serum binding by equilibrium dialysis, HPLC/mass spectrometry; type: in vitro ADME; conditions: read-out: Human serum binding (free fraction)
From the text: (DOCX) Click here for additional data file.

[10] = Cell culture medium protein binding by equilibrium dialysis, HPLC/mass spectrometry; type: in vitro ADME
[11] = Clinical systemic exposure; type: in vivo, human
[12] = system: latent HIV in memory CD4 T cells from HIV-infected patients on suppressive cART; conditions: for HIV RNA avg: 6 days, one value per donor; for extracellular HIV RNA in culture supernatants: memory CD4 T cells
From the text: We used HIV RNA in cell culture supernatants as a surrogate marker for virion release from treated cells. We assumed that extracellular virions would accumulate over the course of several days; therefore, the duration of culture was extended to 6 days to maximize assay sensitivity.
as §3, §4, §5

[13] = human, in vivo; cited from earlier work

C/C=C1\NC(=O)[C@H]2CSSCC/C=C/[C@H](CC(=O)N[C@H](C(C)C)C(=O)N2)OC(=O)[C@H](C(C)C)NC1=O [RMD, romidepsin]
CC50 at 48 h [1]: 100 nM | CC50 [2]: 107 ± 126 nM | IC50 (human HDAC-5): 1160 nM | IC50 (human HDAC-1): 0.102 nM | IC50 (human HDAC-10): 0.133 nM | IC50 (human HDAC-4): 314 nM | HIV RNA avg ([3]; 6hr): 164 copies/mil cells and 924 copies/mil cells and 4345 copies/mil cells and 5330 copies/mil cells and 714 copies/mil cells | HIV RNA avg ([3]; 12hr): 222 copies/mil cells and 562 copies/mil cells and 5634 copies/mil cells and 3147 copies/mil cells and 922 copies/mil cells | HIV RNA avg ([3]; 24hr): 702 copies/mil cells and 1193 copies/mil cells and 7541 copies/mil cells and 2530 copies/mil cells and 1320 copies/mil cells | HIV RNA avg ([3]; 48hr): 2153 copies/mil cells and 3839 copies/mil cells and 30568 copies/mil cells and 3060 copies/mil cells and 1406 copies/mil cells | increase in intracellular HIV RNA levels versus vehicle ([3]; memory CD4 T cells, 40 nM RMD for 4 hours, peak between 24 and 48 hours): 6 fold | HIV RNA ([4]; Figure 3C, 2.5 nM RMD, 7 days, one value per donor): 1205 copies/mL and 20 copies/mL and 2949 copies/mL and 560 copies/mL and 341 copies/mL and 86 copies/mL and 137 copies/mL | donors with induced HIV RNA release ([4]; resting CD4 T cells, 2.5 nM RMD continuous 6 days): 6 of 8 | HIV RNA in culture supernatants, longitudinal samples ([4]; resting CD4 T cells, 7 days continuous RMD, high-responding patient, three longitudinal samples): robust and reproducible dose-dependent HIV RNA increase | longitudinal samples with concentration-dependent effect on viral expression ([4]; resting CD4 T cells, 7 days continuous RMD, low-responding patient): 2 of 3 | persistence of inhibition of cell-associated HDAC activity [5]: persisted throughout the 48-hour incubation period | fraction of CD69-positive cells [6]: minimal increases | induction of IFN-α, IFN-γ, TNF-α, TGF-β, IL-2, IL-7 or other cytokines [7]: no significant induction | cell viability [8]: did not substantially affect cell viability | fraction unbound [9]: 0.08 | Free drug concentration, ex vivo cell culture exposure ([10]; RMD 40 nM, VOR 1,000 nM in culture): 22 nM | fraction unbound ([10]; cell culture medium, equilibrium dialysis, read-out: Cell culture medium protein binding (free fraction)): 0.55 | Free drug concentration, clinical systemic exposure ([11]; at Cmax, RMD 14 mg/m^2 i.v., VOR 400 mg p.o.): 56 nM | Fraction of clinical exposure ([11]; ratio of free drug concentration in cell culture media (RMD 40 nM, VOR 1,000 nM) and in serum of clinically treated patients): 39% | HIV RNA avg ([12]; Figure 3A, 5 nM RMD): 1476 copies/mil cells and 10908 copies/mil cells and 138 copies/mil cells and 222 copies/mil cells and 322 copies/mil cells and 41.9 copies/mil cells and 73 copies/mil cells and 313.5 copies/mil cells | HIV RNA avg ([12]; Figure 3A, 20 nM RMD): 68 copies/mil cells and 712 copies/mil cells and 1346 copies/mil cells and 3086 copies/mil cells and 1361 copies/mil cells and 157 copies/mil cells and 732 copies/mil cells and 4776 copies/mil cells | HIV RNA avg ([12]; Figure 3B, 5 nM RMD): 1032 copies/mil cells and 1674 copies/mil cells and 1740 copies/mil cells and 1435 copies/mil cells and 1299 copies/mil cells and 1832 copies/mil cells and 6659 copies/mil cells and 1420 copies/mil cells and 8934 copies/mil cells and 205 copies/mil cells and 148 copies/mil cells and 1219 copies/mil cells | High-responding patient; HIV RNA [copies/mL] ([12]; Figure 7, 0.093nM RMD, donor 29, experiments 1-3): 34 copies/mL and 36 copies/mL and 64 copies/mL | Low-responding patient; HIV RNA [copies/mL] ([12]; Figure 7, 0.093nM RMD, donor 33, experiments 1-3): 20 copies/mL and 28 copies/mL | extracellular HIV RNA in culture supernatants ([12]; 5 nM RMD continuous 6 days): detection of extracellular HIV RNA in memory CD4 T-cell cultures from the majority of tested donors | extracellular HIV RNA in culture supernatants ([12]; 5 and 20 nM RMD for 4 hours, day 6): increased extracellular HIV RNA | most common adverse reactions [13]: thrombocytopenia, neutropenia, lymphopenia, nausea, and fatigue
